In US9480259B2, “Pyrazolopyrans having herbicidal and pharmaceutical properties” (BASF SE, priority 2012, dated 2016):

Molecular target: Arabidopsis thaliana SHMT
Test: SHMT activity assay (ED50 SHMT), coupled with N5,N10-CH2-THF dehydrogenase, NADH at 340 nm
Format: biochemical
Details: Arabidopsis thaliana SHMT enzyme assay; values given as upper bounds
Summary of the method: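 His-tagged SHMT purified on Ni-NTA. NADH formation followed at 340 nm for 30 min; ED50 from inhibition of initial velocity.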

| Compound | EC50 |
| --- | --- |
| Cc1n[nH]c2c1C(c1cc(Cc3nnn[nH]3)cc(-c3nnn[nH]3)c1)(C(C)C)C(C#N)=C(N)O2 (centres unmarked) [Compound 2.735] | < 10000 nM |
| Cc1n[nH]c2c1C(c1cc(C#N)cc(-c3ccc(C(=O)O)s3)c1)(C1(F)COC1)C(C#N)=C(N)O2 (centres unmarked) [Compound 2.680] | < 1000 nM |
| Cc1n[nH]c2c1C(c1cc(CCC#N)cc(-c3nnn[nH]3)c1)(C(C)C)C(C#N)=C(N)O2 (centres unmarked) [Compound 2.710] | < 100 nM |
| Cc1n[nH]c2c1C(c1cc(C#N)cc(N(C)C(=O)CCCC#N)c1)(C1CCC1)C(C#N)=C(N)O2 (centres unmarked) [Compound 2.659] | < 10 nM |

Same assay, conditions: Table 2, Arabidopsis thaliana SHMT enzyme assay; values given as upper bounds

| Compound | EC50 |
| --- | --- |
| COc1ccc(C2(C(C)C)C(C#N)=C(N)Oc3[nH]ncc32)cc1Br (centres unmarked) [Compound 2.322] | < 10 nM |
| CCOc1n[nH]c2c1C(c1cc(C#N)cc(C(F)(F)F)c1)(C1CCC1)C(C#N)=C(N)O2 (centres unmarked) [Compound 2.391] | < 100 nM |
| Cc1n[nH]c2c1C(c1cc(Cl)cc(-c3cccs3)c1)(C1CC1)C(C#N)=C(N)O2 (centres unmarked) [Compound 2.276] | < 1000 nM |
| COc1n[nH]c2c1C(c1cc(Cl)cc(Cl)c1)(C1CCC1)C(C#N)=C(N)O2 (centres unmarked) [Compound 2.386] | < 10 nM |
| CC(C)C1(c2cc(C#N)cc(C#N)c2)C(C#N)=C(N)Oc2[nH]ncc21 (centres unmarked) [Compound 2.336] | < 10 nM |
| CSc1cccc(C2(C3CCC3)C(C#N)=C(N)Oc3[nH]nc(C)c32)c1 (centres unmarked) [Compound 2.310] | < 10 nM |
| N#CC1=C(N)Oc2[nH]ncc2C1(c1cc(Cl)cc(C(F)(F)F)c1)C1CCC1 (centres unmarked) [Compound 2.252] | < 10 nM |
| Cc1n[nH]c2c1C(c1cc(N3CCOCC3)cc(C(F)(F)F)c1)(C1CCC1)C(C#N)=C(N)O2 (centres unmarked) [Compound 2.271] | < 10 nM |
| N#CC1=C(N)Oc2[nH]ncc2C1(c1cc(Cl)cc(C#N)c1)C1CC1 (centres unmarked) [Compound 2.360] | < 100 nM |
| CCOc1n[nH]c2c1C(c1cc(Cl)cc(Cl)c1)(C(C)C)C(C#N)=C(N)O2 (centres unmarked) [Compound 2.384] | < 10 nM |
| COc1c(Br)cc(C2(C3CCC3)C(C#N)=C(N)Oc3[nH]nc(C)c32)cc1Br (centres unmarked) [Compound 2.241] | < 10 nM |
| CC(C)C1(c2cc(Cl)cc(Br)c2)C(C#N)=C(N)Oc2[nH]ncc21 (centres unmarked) [Compound 2.317] | < 10 nM |
| N#CC1=C(N)Oc2[nH]ncc2C1(c1cc(C#N)cc(C(=O)O)c1)C1CCC1 (centres unmarked) [Compound 2.372] | < 10000 nM |
| N#CC1=C(N)Oc2[nH]ncc2C1(c1cc(C#N)cc(C(F)(F)F)c1)C1CC1 (centres unmarked) [Compound 2.361] | < 100 nM |
| Cc1n[nH]c2c1C(c1cc(Br)cc(OC(F)(F)F)c1)(C1CCC1)C(C#N)=C(N)O2 (centres unmarked) [Compound 2.307] | < 10 nM |
| Cc1n[nH]c2c1C(c1cc(Cl)cc(-c3ccc(F)cc3)c1)(C1CCC1)C(C#N)=C(N)O2 (centres unmarked) [Compound 2.224] | < 10 nM |
| Cc1n[nH]c2c1C(c1cc(Cl)cc(-c3cccc(F)c3)c1)(C1CCC1)C(C#N)=C(N)O2 (centres unmarked) [Compound 2.223] | < 10 nM |
| Cc1n[nH]c2c1C(c1cc(Br)cc(C#N)c1)(C(C)C)C(C#N)=C(N)O2 (centres unmarked) [Compound 2.334] | < 10 nM |
| Cc1n[nH]c2c1C(c1cc(Cl)cc(-c3cccc(Cl)c3)c1)(C1CCC1)C(C#N)=C(N)O2 (centres unmarked) [Compound 2.227] | < 10 nM |
| CC(C)C1(c2cc(Cl)cc(C(F)(F)F)c2)C(C#N)=C(N)Oc2[nH]ncc21 (centres unmarked) [Compound 2.315] | < 10 nM |
| Cc1cccc(Oc2cc(Cl)cc(C3(C4CCC4)C(C#N)=C(N)Oc4[nH]nc(C)c43)c2)c1 (centres unmarked) [Compound 2.239] | < 100 nM |
| N#CC1=C(N)Oc2[nH]ncc2C1(c1cc(Cl)cc(Br)c1)C1CCC1 (centres unmarked) [Compound 2.248] | < 10 nM |
| N#CC1=C(N)Oc2[nH]ncc2C1(c1cc(Br)cc(Br)c1)C1CCC1 (centres unmarked) [Compound 2.251] | < 10 nM |
| Cc1n[nH]c2c1C(c1ccc(Cl)c(Cl)c1)(C1(F)CC1)C(C#N)=C(N)O2 (centres unmarked) [Compound 2.245] | < 10 nM |
| Cc1n[nH]c2c1C(c1cc(Cl)c(F)c(Cl)c1)(C1CCC1)C(C#N)=C(N)O2 (centres unmarked) [Compound 2.242] | < 10 nM |
| Cc1n[nH]c2c1C(c1cccc(OC(F)(F)F)c1)(C1CCC1)C(C#N)=C(N)O2 (centres unmarked) [Compound 2.278] | < 10 nM |

Same assay, conditions: Table 2; values given as upper bounds

| Compound | EC50 |
| --- | --- |
| CCC1(c2ccc(F)c(Br)c2)C(C#N)=C(N)Oc2[nH]nc(C)c21 (racemic) [Compound 2.13.] | < 100 nM |
| Cc1n[nH]c2c1C(c1ccc(Cl)cc1)(C1CCC1)C(C#N)=C(N)O2 (centres unmarked) [Compound 2.138.] | < 1000 nM |
| CCC1(c2cc(C(F)(F)F)cc(C(F)(F)F)c2)C(C#N)=C(N)Oc2[nH]nc(CCC(F)F)c21 (centres unmarked) [Compound 2.107.] | < 1000 nM |
| Cc1n[nH]c2c1C(c1cc(F)c(O)c(F)c1)(C1CCC1)C(C#N)=C(N)O2 (centres unmarked) [Compound 2.449] | < 100 nM |
| CCC1(c2ccc(OS(=O)(=O)c3ccc(Cl)cc3Cl)c(C)c2)C(C#N)=C(N)Oc2[nH]nc(C)c21 (centres unmarked) [Compound 2.59.] | < 10000 nM |
| CCC1(c2cccc(Br)c2)C(C#N)=C(N)Oc2[nH]nc(C)c21 (centres unmarked) [Compound 2.4.] | < 1000 nM |
| Cc1n[nH]c2c1C(c1ccc(F)c(Cl)c1)(C(C)C)C(C#N)=C(N)O2 (centres unmarked) [Compound 2.134.] | < 100 nM |
| CCC1(c2ccc([N+](=O)[O-])cc2)C(C#N)=C(N)Oc2[nH]nc(C)c21 (centres unmarked) [Compound 2.40.] | < 1000 nM |
| CCC1(c2cc(F)c(OC)c(F)c2)C(C#N)=C(N)Oc2[nH]nc(C)c21 (centres unmarked) [Compound 2.45.] | < 1000 nM |
| Cc1n[nH]c2c1C(c1ccc(CCC(=O)O)c(C(F)(F)F)c1)(C1CCC1)C(C#N)=C(N)O2 (centres unmarked) [Compound 2.543] | < 100 nM |
| COc1ccc(C2(C(C)C)C(C#N)=C(N)Oc3[nH]nc(C)c32)cc1 (centres unmarked) [Compound 2.167.] | < 1000 nM |
| N#CC1=C(N)Oc2[nH]nc(C3CC3)c2C1(c1ccc(Cl)cc1)C1CCC1 (centres unmarked) [Compound 2.140.] | < 10000 nM |
| CCC1(c2ccc(Oc3ccccc3)cc2)C(C#N)=C(N)Oc2[nH]nc(C)c21 (centres unmarked) [Compound 2.8.] | < 1000 nM |
| CC(=O)N(C)c1cc(C#N)cc(C2(C(C)C)C(C#N)=C(N)Oc3[nH]nc(C)c32)c1 (centres unmarked) [Compound 2.553] | < 10 nM |
| Cc1n[nH]c2c1C(c1cc(C#N)cc(N(C)CC#N)c1)(C1CCC1)C(C#N)=C(N)O2 (centres unmarked) [Compound 2.631] | < 10 nM |
| CCc1n[nH]c2c1C(c1cccc(C(F)(F)F)c1)(C1CC1)C(C#N)=C(N)O2 (centres unmarked) [Compound 2.104.] | < 1000 nM |
| Cc1n[nH]c2c1C(c1ccc(Cc3nnn[nH]3)c(Cl)c1)(C1CCC1)C(C#N)=C(N)O2 (centres unmarked) [Compound 2.639] | < 10 nM |
| COC(=O)c1cccc(-c2cc(Cl)cc(C3(C4CCC4)C(C#N)=C(N)Oc4[nH]nc(OC)c43)c2)c1 (centres unmarked) [Compound 2.457] | < 10 nM |
| Cc1n[nH]c2c1C(c1ccc(OCc3ccccc3)c(Cl)c1)(C1CC1)C(C#N)=C(N)O2 (centres unmarked) [Compound 2.186.] | < 100 nM |
| CC(C)CC1(c2cc(Cl)cc(Cl)c2)C(C#N)=C(N)Oc2[nH]ncc21 (centres unmarked) [Compound 2.205.] | < 10000 nM |

| Compound | EC50 |
| --- | --- |
| Cc1n[nH]c2c1C(c1cccc(C(F)(F)F)c1)(C1CCCC1)C(C#N)=C(N)O2 (centres unmarked) [Compound 2.213.] | < 10 nM |
| CCC1(c2cccc(C(F)(F)F)c2)C(C#N)=C(N)Oc2[nH]nc(C(C)C)c21 (centres unmarked) [Compound 2.118.] | < 1000 nM |
| COC(=O)c1cccc(-c2cc(Cl)cc(C3(C4CCC4)C(C#N)=C(N)Oc4[nH]nc(C)c43)c2)c1 (centres unmarked) [Compound 2.456] | < 10 nM |
| CCC1(c2cc(C(F)(F)F)cc(C(F)(F)F)c2)C(C#N)=C(N)Oc2[nH]ncc21 (centres unmarked) [Compound 2.64.] | < 1000 nM |
| Cc1n[nH]c2c1C(c1cc(Cl)cc(-c3cccc(-c4nnn[nH]4)c3)c1)(C1CCC1)C(C#N)=C(N)O2 (centres unmarked) [Compound 2.515] | < 10 nM |
| Cc1n[nH]c2c1C(c1cc(Cl)cc(CCC(=O)O)c1)(C1(F)CC1)C(C#N)=C(N)O2 (centres unmarked) [Compound 2.497] | < 100 nM |
| CCCc1n[nH]c2c1C(CC)(c1cccc(Cl)c1)C(C#N)=C(N)O2 (centres unmarked) [Compound 2.85.] | < 10000 nM |
| Cc1n[nH]c2c1C(c1cccc(Cl)c1)(C1CCC1)C(C#N)=C(N)O2 (centres unmarked) [Compound 2.172.] | < 100 nM |
| Cc1n[nH]c2c1C(c1cc(Br)cc(OCC(=O)O)c1)(C1(F)CC1)C(C#N)=C(N)O2 (centres unmarked) [Compound 2.503] | < 10000 nM |
| Cc1n[nH]c2c1C(c1ccc(Cl)cc1)(C1CC1)C(C#N)=C(N)O2 (centres unmarked) [Compound 2.46.] | < 1000 nM |
| CCCC1(c2cc(Cl)cc(C#N)c2)C(C#N)=C(N)Oc2[nH]nc(C(F)F)c21 (centres unmarked) [Compound 2.608] | < 10 nM |
| CCCCC1(c2cc(Cl)cc(Cl)c2)C(C#N)=C(N)Oc2[nH]nc(C)c21 (racemic) [Compound 2.92.] | < 10000 nM |
| Cc1n[nH]c2c1C(c1cc(C(F)(F)F)cc(C(F)(F)F)c1)(C1CCC1)C(C#N)=C(N)O2 (centres unmarked) [Compound 2.191.] | < 100 nM |
| CCC1(c2cccc(C(F)(F)F)c2)C(C#N)=C(N)Oc2[nH]nc(COC)c21 (racemic) [Compound 2.97.] | < 10000 nM |
| Cc1n[nH]c2c1C(c1cc(C#N)cc(CCC#N)c1)(C1CCC1)C(C#N)=C(N)O2 (centres unmarked) [Compound 2.650] | < 10 nM |
| CCC1(c2cccc(Cl)c2)C(C#N)=C(N)Oc2[nH]nc(C(C)C)c21 (centres unmarked) [Compound 2.116.] | < 1000 nM |
| Cc1n[nH]c2c1C(c1cc(Cl)cc(Cl)c1)(C1CCCCC1)C(C#N)=C(N)O2 (centres unmarked) [Compound 2.206.] | < 10000 nM |
| Cc1n[nH]c2c1C(c1cc(Cl)cc(Oc3ccc(O)c(C(F)(F)F)c3)c1)(C1CCC1)C(C#N)=C(N)O2 (centres unmarked) [Compound 2.597] | < 100 nM |
| Cc1n[nH]c2c1C(c1cc(Cl)cc(C(F)(F)F)c1)(C1(F)COC1)C(C#N)=C(N)O2 (centres unmarked) [Compound 2.502] | < 10 nM |

Same assay, conditions: inhibition of initial velocity of Arabidopsis thaliana SHMT

| Compound | EC50 |
| --- | --- |
| Cc1cccc(-c2ccc(C3(C4CCC4)C(C#N)=C(N)Oc4[nH]nc(C)c43)s2)c1 (centres unmarked) [Compound 4.29] | < 10 nM |
| Cc1n[nH]c2c1C(c1cc3ccc(Cl)cc3s1)(C1CCC1)C(C#N)=C(N)O2 (centres unmarked) [Compound 4.63] | < 1000 nM |
| COc1ccc2cc(C3(C4(F)CC4)C(C#N)=C(N)Oc4[nH]nc(C)c43)ccc2c1 (racemic) [Compound 4.40] | < 10 nM |
| Cc1n[nH]c2c1C(c1ccc3c(c1)OCO3)(C1CCC1)C(C#N)=C(N)O2 (centres unmarked) [Compound 4.44] | < 10 nM |
| Cc1n[nH]c2c1C(c1cc(C(=O)O)cs1)(C1CCC1)C(C#N)=C(N)O2 (centres unmarked) [Compound 4.66] | < 1000 nM |
